Source: US20220211877A1, “COMPOUND FOR INTRAOPERATIVE MOLECULAR BIOIMAGING, METHOD OF MAKING THE SAME, USE THEREOF IN INTRAOPERATIVE MOLECULAR BIOIMAGING AND SURGICAL METHOD COMPRISING INTRAOPERATIVE MOLECULAR BIOIMAGING” (Klinikum rechts der lsar der Techischen Universität München, priority 2018, published 2022)
Where a SMILES comes first, the peptide text is derived from it. Side-chain parts run from the residue outwards. [ ]: non-standard residue; d: D form. The star is where a group is joined. IRDye800CW = CC1(C)C(/C=C/C2=C(Oc3ccc(S(=O)(=O)O)cc3)C(=C/C=C3/N(CCCCS(=O)(=O)O)c4ccc(S(=O)(=O)O)cc4C3(C)C)/CCC2)=[N+](CCCCCC(=O)*)c2ccc(S(=O)(=O)[O-])cc21; NMeK = CN[C@@H](CCCCN)C(=O)O; Ahx = NCCCCCC(=O)O

Legend:
[1] = biodistribution by fluorescence intensity in HNSCC PDX mice
Description: Relying on fluorescence intensity measurements, the distribution and accumulation of FRX103 in the organism was determined over the time period shown.

[2] = biodistribution and nonspecific binding in control animals (control TX, sham TX, unoperated); settings: for renal clearance: 6 h after injection
Description: Similarly, healthy oral epithelium was transplanted for control experiments.
Control experiments were performed with sham operations and transplantation with healthy control tissue, which were imaged with FRX110 and FRX109 as the control tracer.
The specificity of the binding was investigated in the in vivo model with the control tracer FRX109. FRX109 was visualized in mice with a sham graft (sham TX) of human carcinoma tissue (no tissue was transplanted).

αvβ6 = αvβ6 (Homo sapiens, UniProt P06756+P18564); assay: solid-phase integrin binding assay; settings: n = 2
αvβ3 = αvβ3 (Homo sapiens, UniProt P05106+P06756); assay: solid-phase integrin binding assay; settings: n = 2
αvβ5 = αvβ5 (Homo sapiens, UniProt P06756+P18084); assay: solid-phase integrin binding assay; settings: n = 2
Description: (§1) The integrin binding affinity and selectivity profile of the compounds was determined by a solid-phase binding assay as previously described.^48

αIIbβ3 = αIIbβ3 (Homo sapiens, UniProt P05106+P08514); assay: solid-phase integrin binding assay; settings: n = 2
Description: as §1

α5β1 = α5β1 (Homo sapiens, UniProt P05556+P08648); assay: solid-phase integrin binding assay; settings: n = 2
αvβ8 = αvβ8 (Homo sapiens, UniProt P06756+P26012); assay: solid-phase integrin binding assay; settings: n = 2
invasive HNSCC tissue = assay: molecular bioimaging in HNSCC PDX mouse model; type: in vivo, NOD/SCID mice
Description: An orthotopic HNSCC PDX (head and neck squamous cell carcinoma patient derived xenotransplant) mouse model was developed that allows the analysis of invasive, orthotropic human carcinoma tissue. HNSCC tissue samples were transplanted into the neck area of NOD/SCID mice. This provides epithelial derived carcinoma tissue in a mesenchymal tissue context to mimic the epithelial-mesenchymal interface between invasive carcinoma tissue and stroma. […]
Bioimgaing was performed relying on equipment described in ^42 using a 750 nm CW laser diode (BWF2-750-0, B & W Tek, Newark, Del., USA) with a maximum power of 300 mW was used to excite the fluorophores. […] The laser power was measured at a working distance of 15 cm at 85 mW/cm 2, which is lower than the maximum permissible exposure according to the standard of the American National Standards Institute (ANSI). A short-pass filter (E700SP, Chroma Technology, Rockingham, Vt., USA) was used to eliminate component of the field illumination NIRF signal to preclude interference between the fluorescence detection field and the field illumination light path (F1). […]
The measurements of the average fluorescence intensity/pixels were made in two regions of interests (ROIs). […]
The quotient ROI1/ROI2 of the average fluorescence intensity/pixel is given as tumor tissue to background ratio (TBR). […]

HN cells = assay: cell binding experiment, fluorescence microscopy; type: cell-based, human; settings: for fluorescence signal intensity on cells: fixed HN cells, 10 μM, 1 h at r.t.
Text: (§2) Human OSCC cell lines HN was purchased from the German Collection of Microorganisms and Cell Cultures, Braunschweig, Germany (DSMZ no. ACC 417 (HN) The HN cell line was established from a cervical lymph node metastasis of an invasive squamous cell carcinoma of the soft palate. The metastasis occurred 7 years after treatment of the primary tumour and metastasized to the lung and brain. ^49 As control cells, we used the human ovarian cancer cell line OVMZ6 with low integrin avb6 and high integrin αvβ3 expression. ^50 All cells were cultivated in Dulbecco's Modified Eagle's Medium (DMEM) (Sigma-Aldrich, St. Louis, Mo., USA), supplemented with 10% (v/v) fetal calf serum (FCS) (Gibco, Lifelechnologies™, Carlsbad, Calif., USA).
(§3) HN and OVMZ6 cells were cultivated for 24 h on fibronectin-coated microchamber slides at a density of 25×10^3/well, thereafter fixed in 2% (w/v) PFA for 15 min at r.t. and washed in PBS. The Cy5.5-conjugated compound OM_1231, dissolved in PBS, 5% (v/v) dimethyl sulfoxide (DMSO), was applied at a final concentration of 10 μM for 1 h at r.t., followed by 3 washes in PBS. […] As control peptide served the non-binding cycl(R^betaADfK) labelled via lysine side-chain NH2 group with Cy5.5 fluorescent dye (code OM_1224). After the incubation period, cells were washed 6 times in PBS and slides mounted. Fluorescence signal intensity was detected by the microscope Zeiss LSM 700 (Zeiss) as described above. Images were merged by applying for the fluorescence image the LUT “blue to red”: low intensity: blue; medium intensity: green; and high intensity: red.

OVMZ6 cells = assay: cell binding experiment, fluorescence microscopy; type: cell-based, human; settings: fixed OVMZ6 cells (low αvβ6, high αvβ3), 10 μM
Text: as §2, §3

[3] = 0-24 h post injectionem, FIG. 5b

Chain of αvβ8 (P06756 31-889 limits assumed): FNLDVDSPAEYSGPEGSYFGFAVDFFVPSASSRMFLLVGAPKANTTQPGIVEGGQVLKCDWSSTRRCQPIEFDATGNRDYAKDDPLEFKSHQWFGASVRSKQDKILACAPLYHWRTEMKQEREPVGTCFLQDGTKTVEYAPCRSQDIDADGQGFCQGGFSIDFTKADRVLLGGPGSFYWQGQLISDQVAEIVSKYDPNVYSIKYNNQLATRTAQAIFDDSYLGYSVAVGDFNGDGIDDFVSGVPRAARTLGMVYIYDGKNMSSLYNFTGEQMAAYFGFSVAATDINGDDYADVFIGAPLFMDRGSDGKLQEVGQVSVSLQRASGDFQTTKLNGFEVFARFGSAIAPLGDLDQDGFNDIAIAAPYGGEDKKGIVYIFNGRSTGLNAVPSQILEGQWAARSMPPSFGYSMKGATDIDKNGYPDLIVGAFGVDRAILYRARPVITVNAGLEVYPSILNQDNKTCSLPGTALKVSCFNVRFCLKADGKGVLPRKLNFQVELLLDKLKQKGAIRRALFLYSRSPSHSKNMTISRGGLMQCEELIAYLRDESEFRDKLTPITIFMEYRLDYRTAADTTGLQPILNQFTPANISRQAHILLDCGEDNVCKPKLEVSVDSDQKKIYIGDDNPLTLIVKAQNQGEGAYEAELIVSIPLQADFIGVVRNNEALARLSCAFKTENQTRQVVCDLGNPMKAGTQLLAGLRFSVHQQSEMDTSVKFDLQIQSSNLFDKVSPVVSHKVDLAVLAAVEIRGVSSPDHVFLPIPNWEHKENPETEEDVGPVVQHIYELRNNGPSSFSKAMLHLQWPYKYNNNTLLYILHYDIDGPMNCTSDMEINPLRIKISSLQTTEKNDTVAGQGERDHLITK
Chain of αvβ8 (P06756 891-992 partner limits assumed): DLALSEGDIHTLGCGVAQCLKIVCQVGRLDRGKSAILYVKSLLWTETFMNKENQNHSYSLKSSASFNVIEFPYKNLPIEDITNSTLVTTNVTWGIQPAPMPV
Chain of αvβ8 (P26012 43-684 limits assumed): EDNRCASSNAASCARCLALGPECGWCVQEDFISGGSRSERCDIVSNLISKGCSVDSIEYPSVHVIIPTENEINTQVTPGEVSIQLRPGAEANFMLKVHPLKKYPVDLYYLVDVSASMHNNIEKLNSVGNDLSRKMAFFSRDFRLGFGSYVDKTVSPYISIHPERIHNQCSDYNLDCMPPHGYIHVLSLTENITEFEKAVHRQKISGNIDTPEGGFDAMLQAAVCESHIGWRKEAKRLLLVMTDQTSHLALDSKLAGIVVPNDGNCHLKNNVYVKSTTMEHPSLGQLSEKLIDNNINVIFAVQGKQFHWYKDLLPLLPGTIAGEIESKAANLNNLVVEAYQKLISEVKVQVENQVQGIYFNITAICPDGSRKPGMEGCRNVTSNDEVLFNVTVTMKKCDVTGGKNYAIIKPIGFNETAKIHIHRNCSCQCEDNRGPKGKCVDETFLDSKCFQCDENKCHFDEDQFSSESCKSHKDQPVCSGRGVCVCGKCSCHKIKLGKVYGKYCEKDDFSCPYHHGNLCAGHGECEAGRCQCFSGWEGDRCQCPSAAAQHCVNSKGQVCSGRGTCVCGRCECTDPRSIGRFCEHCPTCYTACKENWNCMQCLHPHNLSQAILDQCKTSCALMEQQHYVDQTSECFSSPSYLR
Chain of αvβ6 (P06756 31-889 limits assumed): as the sequence (P06756 31-889 limits assumed) above
Chain of αvβ6 (P06756 891-992 partner limits assumed): as the sequence (P06756 891-992 partner limits assumed) above
Chain of αvβ6 (P18564 22-707 limits assumed): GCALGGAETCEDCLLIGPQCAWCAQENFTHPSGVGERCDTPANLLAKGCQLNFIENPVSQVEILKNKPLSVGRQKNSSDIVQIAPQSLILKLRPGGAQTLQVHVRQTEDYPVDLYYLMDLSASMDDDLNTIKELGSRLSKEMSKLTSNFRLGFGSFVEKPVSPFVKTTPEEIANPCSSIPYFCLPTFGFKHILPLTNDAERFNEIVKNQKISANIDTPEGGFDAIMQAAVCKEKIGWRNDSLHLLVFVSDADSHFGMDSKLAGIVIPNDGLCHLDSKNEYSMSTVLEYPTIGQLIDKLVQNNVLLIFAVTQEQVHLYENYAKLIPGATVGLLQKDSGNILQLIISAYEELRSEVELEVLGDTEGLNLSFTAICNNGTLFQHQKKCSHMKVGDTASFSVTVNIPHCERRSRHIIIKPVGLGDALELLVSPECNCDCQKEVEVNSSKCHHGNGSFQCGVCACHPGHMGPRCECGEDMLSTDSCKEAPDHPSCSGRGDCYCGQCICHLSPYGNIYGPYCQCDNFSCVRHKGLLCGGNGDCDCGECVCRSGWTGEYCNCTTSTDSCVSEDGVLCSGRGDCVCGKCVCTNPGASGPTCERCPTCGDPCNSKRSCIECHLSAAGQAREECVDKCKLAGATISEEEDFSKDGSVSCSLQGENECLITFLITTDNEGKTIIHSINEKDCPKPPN
Chain of α5β1 (P08648 42-894 limits assumed): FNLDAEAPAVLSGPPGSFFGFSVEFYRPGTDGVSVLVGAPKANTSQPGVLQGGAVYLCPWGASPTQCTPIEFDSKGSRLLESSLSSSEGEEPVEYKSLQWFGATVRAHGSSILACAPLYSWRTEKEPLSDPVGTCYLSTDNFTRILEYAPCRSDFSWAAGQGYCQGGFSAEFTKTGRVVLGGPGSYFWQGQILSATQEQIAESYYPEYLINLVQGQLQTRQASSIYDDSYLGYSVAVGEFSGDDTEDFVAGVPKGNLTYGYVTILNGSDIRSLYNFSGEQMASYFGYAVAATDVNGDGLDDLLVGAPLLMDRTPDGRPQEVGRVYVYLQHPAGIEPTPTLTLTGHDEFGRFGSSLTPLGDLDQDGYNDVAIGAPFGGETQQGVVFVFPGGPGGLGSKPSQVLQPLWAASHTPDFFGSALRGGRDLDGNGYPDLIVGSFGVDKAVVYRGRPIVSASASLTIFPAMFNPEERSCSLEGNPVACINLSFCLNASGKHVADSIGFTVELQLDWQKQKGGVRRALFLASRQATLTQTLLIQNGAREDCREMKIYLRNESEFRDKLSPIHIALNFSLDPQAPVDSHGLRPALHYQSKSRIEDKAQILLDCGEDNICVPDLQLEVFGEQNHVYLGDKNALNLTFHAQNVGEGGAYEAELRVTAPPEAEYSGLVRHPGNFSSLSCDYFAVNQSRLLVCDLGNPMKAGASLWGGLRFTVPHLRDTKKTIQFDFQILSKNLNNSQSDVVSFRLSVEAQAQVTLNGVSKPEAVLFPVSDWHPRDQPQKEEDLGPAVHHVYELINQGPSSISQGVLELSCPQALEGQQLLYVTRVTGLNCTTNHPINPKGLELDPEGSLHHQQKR
Chain of α5β1 (P08648 895-995 partner limits assumed): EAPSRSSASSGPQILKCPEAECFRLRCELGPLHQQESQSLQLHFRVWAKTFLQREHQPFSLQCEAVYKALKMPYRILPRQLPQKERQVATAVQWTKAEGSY
Chain of α5β1 (P05556 21-728 limits assumed): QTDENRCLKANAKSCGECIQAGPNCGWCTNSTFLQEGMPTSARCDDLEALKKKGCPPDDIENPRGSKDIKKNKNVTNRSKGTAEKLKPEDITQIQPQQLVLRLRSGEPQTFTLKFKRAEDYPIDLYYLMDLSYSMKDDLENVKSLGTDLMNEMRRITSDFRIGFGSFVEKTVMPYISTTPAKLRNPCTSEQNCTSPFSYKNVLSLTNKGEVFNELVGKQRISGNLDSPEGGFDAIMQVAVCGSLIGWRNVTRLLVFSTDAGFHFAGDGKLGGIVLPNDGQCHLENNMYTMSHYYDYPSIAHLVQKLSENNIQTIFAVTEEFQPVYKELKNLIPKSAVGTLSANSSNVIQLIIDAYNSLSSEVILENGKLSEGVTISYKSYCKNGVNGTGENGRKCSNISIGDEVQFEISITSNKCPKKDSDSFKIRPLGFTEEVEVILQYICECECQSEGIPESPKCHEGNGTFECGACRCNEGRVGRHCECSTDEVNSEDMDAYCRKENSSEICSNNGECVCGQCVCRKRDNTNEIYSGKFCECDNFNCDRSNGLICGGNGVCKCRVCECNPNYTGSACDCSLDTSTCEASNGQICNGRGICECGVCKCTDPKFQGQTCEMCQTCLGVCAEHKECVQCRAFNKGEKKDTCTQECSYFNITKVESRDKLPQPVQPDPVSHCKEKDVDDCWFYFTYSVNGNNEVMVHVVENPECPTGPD
Chain of αvβ3 (P06756 31-889 limits assumed): as the sequence (P06756 31-889 limits assumed) above
Chain of αvβ3 (P06756 891-1048 partner limits assumed): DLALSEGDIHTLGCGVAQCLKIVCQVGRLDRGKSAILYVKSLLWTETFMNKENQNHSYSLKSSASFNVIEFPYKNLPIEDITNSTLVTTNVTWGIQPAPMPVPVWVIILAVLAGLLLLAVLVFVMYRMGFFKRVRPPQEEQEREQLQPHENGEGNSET
Chain of αvβ3 (P05106 27-788): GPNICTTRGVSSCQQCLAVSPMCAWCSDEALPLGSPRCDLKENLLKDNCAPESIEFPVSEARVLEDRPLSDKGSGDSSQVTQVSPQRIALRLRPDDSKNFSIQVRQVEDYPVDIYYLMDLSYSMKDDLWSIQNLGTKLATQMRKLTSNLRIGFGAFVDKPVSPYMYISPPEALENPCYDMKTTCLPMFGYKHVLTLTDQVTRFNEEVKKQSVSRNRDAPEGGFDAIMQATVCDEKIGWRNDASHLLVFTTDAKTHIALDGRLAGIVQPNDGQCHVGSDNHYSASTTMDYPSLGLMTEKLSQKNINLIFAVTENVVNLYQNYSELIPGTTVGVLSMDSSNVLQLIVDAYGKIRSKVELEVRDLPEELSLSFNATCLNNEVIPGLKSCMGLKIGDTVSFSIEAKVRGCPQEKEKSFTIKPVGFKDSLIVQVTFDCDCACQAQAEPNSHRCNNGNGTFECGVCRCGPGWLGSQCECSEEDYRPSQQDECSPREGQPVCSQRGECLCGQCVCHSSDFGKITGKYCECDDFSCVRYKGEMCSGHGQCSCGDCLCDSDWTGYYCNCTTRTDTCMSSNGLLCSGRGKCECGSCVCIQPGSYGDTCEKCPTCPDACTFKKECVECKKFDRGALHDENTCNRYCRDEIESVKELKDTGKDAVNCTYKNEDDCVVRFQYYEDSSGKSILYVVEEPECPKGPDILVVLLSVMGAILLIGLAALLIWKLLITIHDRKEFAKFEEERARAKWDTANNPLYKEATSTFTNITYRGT

Compound	IC50 (αvβ6) [nM]	IC50 (αvβ3) [nM]	IC50 (αvβ5) [nM]	IC50 (α5β1) [nM]	renal clearance ([2]; FIG. 5c)	IC50 (αvβ8) [nM]	fluorescence signal intensity on cells (HN cells)	further results
CC(C)C[C@@H]1NC(=O)[C@H](CC(=O)O)NC(=O)CNC(=O)[C@H](CCCNC(=N)N)NC(=O)[C@H](Cc2ccccc2)NC(=O)[C@H](CCCCNC(=O)CCCCCNC(=O)CCCCC[N+]2=C(/C=C/C3=CC(=C/C=C4/N(C)c5ccc6ccccc6c5C4(C)C)/CCC3)C(C)(C)c3c2ccc2ccccc32)N(C)C(=O)[C@H]2CCCN2C(=O)[C@H](Cc2ccccc2)NC(=O)[C@H](C)NC1=O [FRX103, cyc(FRGDLAFp(NMe)K(Ahx-Cy7.5))]	–	–	–	–	–	–	–	time p.i. of best ratio between specific signal and background signal ([1]; i.v., HNSCC PDX mice): 24 h; accumulation in the area of carcinoma tissue ([1]; i.v., up to 24 h p.i., FIG. 5a): constant accumulation; elimination after 24 h ([1]; mouse, in vivo, iv): does not show any elimination; nonspecific accumulation in the area of transplantation ([2]; control TX (healthy epithelial grafting)): no nonspecific accumulation; signal in liver and pancreas ([2]; mouse, in vivo): persistent signal
CC(C)C[C@@H]1NC(=O)[C@H](CC(=O)O)NC(=O)[C@H](C)NC(=O)[C@H](CCCNC(=N)N)NC(=O)[C@H](Cc2ccccc2)NC(=O)[C@H](CCCCNC(=O)CCCCCNC(=O)CCCCC[N+]2=C(/C=C/C3=C(Oc4ccc(S(=O)(=O)O)cc4)C(=C/C=C4/N(CCCCS(=O)(=O)O)c5ccc(S(=O)(=O)O)cc5C4(C)C)/CCC3)C(C)(C)c3cc(S(=O)(=O)[O-])ccc32)N(C)C(=O)[C@H]2CCCN2C(=O)[C@H](Cc2ccccc2)NC(=O)[C@H](C)NC1=O [FRX109, cyc(FRADLAFp(NMe)K(Ahx-IRDye ® 800CW))] (cyclo(FRADLAF[dP][NMeK]([Ahx-IRDye800CW])))	122 ± 12	> 10000	> 10000	> 1000	good renal clearance	> 4000	–	IC50 (αIIbβ3): > 1000 nM
CC(C)C[C@@H]1NC(=O)[C@H](CC(=O)O)NC(=O)CNC(=O)[C@H](CCCNC(=N)N)NC(=O)[C@H](Cc2ccccc2)NC(=O)[C@H](CCCCNC(=O)CCCCCNC(=O)CCCCC[N+]2=C(/C=C/C3=C(Oc4ccc(S(=O)(=O)O)cc4)C(=C/C=C4/N(CCCCS(=O)(=O)O)c5ccc(S(=O)(=O)O)cc5C4(C)C)/CCC3)C(C)(C)c3cc(S(=O)(=O)[O-])ccc32)N(C)C(=O)[C@H]2CCCN2C(=O)[C@H](Cc2ccccc2)NC(=O)[C@H](C)NC1=O [FRX110, cyc(FRGDLAFp(NMe)K(Ahx-IRDye ® 800CW))]	2.2 ± 0.2	408 ± 61	> 10000	37 ± 6	good renal clearance	129 ± 36	–	binding to invasive growing carcinoma xenotransplants (invasive HNSCC tissue; 1st to 12th week p. TX): specific binding; tissue to background (TBR) ratio (invasive HNSCC tissue; 5th week p. TX, i.v. tail vein, FIG. 4a): high; TBR [1, 3]: 1.0; unspecific accumulation or binding [1, 3]: does not reveal unspecific accumulation or binding; time to elimination of unbound compound via the renal system ([1]; i.v.): ≤ 24 h; tissue to background (TBR) ratio ([2]; control animals, FIG. 5c): low; unspecific tracer enhancement ([2]; control animals, FIG. 5c): without unspecific tracer enhancement
CC(C)C[C@@H]1NC(=O)[C@H](CC(=O)O)NC(=O)CNC(=O)[C@H](CCCNC(=N)N)NC(=O)[C@H](Cc2ccccc2)NC(=O)[C@H](CCCCNC(=O)CCCCCNC(=O)CCCCC[N+]2=C(/C=C/C=C/C=C3/N(C)c4ccc5ccccc5c4C3(C)C)C(C)(C)c3c2ccc2ccccc32)N(C)C(=O)[C@H]2CCCN2C(=O)[C@H](Cc2ccccc2)NC(=O)[C@H](C)NC1=O [OM1231, cyc(FRGDLAFp(NMe)K(Ahx-Cy5.5))]	27 ± 2	–	–	–	–	234 ± 33	strong fluorescence signal intensity on cell membranes	fluorescence signal intensity after blocking (HN cells; HN cells, unlabeled OM_1204 at 10-fold molar excess 1 h prior to OM_1231 (10 μM)): strong reduction in fluorescence signal intensity; recognition of cellular integrin αvβ3 (OVMZ6 cells): did not recognize cellular integrin αvβ3
cyc(R-betaAla-D-f-K(Ahx-Cy5.5)) [OM1224]	–	–	–	–	–	–	did not result in fluorescence signal intensity	–
